# pIC50: −log10 of the molar value.
# Key:
# [1] = molecular target: T1, MRE11 (Homo sapiens, UniProt P49959); test: HTS nuclease assay (cleavage of CY5/BBQ-quenched 5' overhang DNA substrate); assay type: biochemical; settings: in vitro HTS nuclease assay; 18 nM MRE11, 40 nM DNA substrate; analysis at t=4 h
# T1 sequence (P49959 1-708): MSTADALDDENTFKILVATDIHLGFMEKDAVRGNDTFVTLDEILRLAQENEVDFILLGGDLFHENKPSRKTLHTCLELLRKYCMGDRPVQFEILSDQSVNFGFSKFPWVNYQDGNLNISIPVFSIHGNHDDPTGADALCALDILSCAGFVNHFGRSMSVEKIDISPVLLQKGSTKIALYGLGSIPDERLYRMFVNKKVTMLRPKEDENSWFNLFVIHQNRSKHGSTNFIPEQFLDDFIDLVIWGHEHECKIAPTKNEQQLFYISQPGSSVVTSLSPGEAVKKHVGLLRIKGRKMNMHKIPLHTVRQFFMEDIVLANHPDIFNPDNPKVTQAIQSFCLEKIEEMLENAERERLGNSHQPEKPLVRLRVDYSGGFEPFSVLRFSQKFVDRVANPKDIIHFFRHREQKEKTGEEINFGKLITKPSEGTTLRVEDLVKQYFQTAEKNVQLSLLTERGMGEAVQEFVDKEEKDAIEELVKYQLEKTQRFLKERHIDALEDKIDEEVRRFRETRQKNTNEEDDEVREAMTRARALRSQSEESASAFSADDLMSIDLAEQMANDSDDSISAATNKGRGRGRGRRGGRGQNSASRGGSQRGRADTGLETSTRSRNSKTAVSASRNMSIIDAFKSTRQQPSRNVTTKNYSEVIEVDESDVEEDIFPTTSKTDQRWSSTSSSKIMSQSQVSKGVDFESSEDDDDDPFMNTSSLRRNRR
# [2] = tested on: Phosphorylated RPA32 S4/S8 in U2OS cells; test: RPA assay (RPA phosphorylation after camptothecin); assay type: cell-based; settings: Homo sapiens, U2OS cells pre-treated 1 h, then 1 uM camptothecin 1 h; for inhibition at 10 µM: inhibitor at 10 μM
# Experimental: U2OS cells were pre-treated for 1 h with MRE11 inhibitors followed by addition of 1 uM camptothecin for 1 h. Cells were lysed in SDS-PAGE loading buffer, sonicated and boiled at 70° C. for 10 min. Equal amounts of protein (50-100 μg) were analysed by Tris-glycine gel electrophoresis Expression levels were quantified using Multi Gauge software and expressed relative to loading control. Phosphorylated RPA32 S4/S8 (A300-245A, Bethyl Laboratories) 1:1000 dilution was used.
# [3] = tested on: DR-GFP U2OS cells; test: HR assay (GFP fluorescence after I-SceI transfection, flow cytometry); assay type: cell-based; settings: Homo sapiens, inhibitor at 25 μM, 72 hours after transfection
# Experimental: DR-GFP U2OS cells (Methods in Molecular Biology 2012, 920, 379.) were transfected with 2.5 μg of I-SceI-expressing pCAGGS vector and treated with the inhibitors at 25 μM concentration. 72 hours after the transfection, the cells were trypsinized and resuspended in 3% BSA in PBS. GFP fluorescence detection was carried out using a BD FACSVerse flow cytometer and data analyzed with FlowJo software.
SMILES,pIC50 [1],inhibition at 10 µM [2],inhibition at 25 µM [3],inhibition at 25 µM ([2]; inhibitor at 25 μM)
"N#C/C(=C\c1cc(Cl)c(O)c(Cl)c1)C(=O)Nc1nc(-c2ccccn2)cs1 [Preparative Example 243, (E)-2-cyano-3-(3,5-dichloro-4-hydroxyphenyl)-N-(4-(pyridin-2-yl)thiazol-2-yl)acrylamide]",> 5.70,100%,50 to 75%,
"COc1ccc(-c2csc(NC(=O)/C(C#N)=C/c3ccc(O)c(O)c3)n2)cn1 [Preparative Example 241, (E)-2-cyano-3-(3,4-dihydroxyphenyl)-N-(4-(6-methoxypyridin-3-yl)thiazol-2-yl)acrylamide]",> 5.70,,< 50%,75%
"N#C/C(=C\c1cnc(O)c(O)c1)C(=O)Nc1nc(-c2ccccc2)cs1 [Preparative Example 200, (E)-2-cyano-3-(5,6-dihydroxypyridin-3-yl)-N-(4-phenylthiazol-2-yl)acrylamide]",5.00 to 5.70,,< 50%,
"N#C/C(=C\c1ccc(O)c(O)c1)C(=O)Nc1nc(-c2ccc(C(F)(F)F)cn2)cs1 [Preparative Example 179, (E)-2-cyano-3-(3,4-dihydroxyphenyl)-N-(4-(5-(trifluoromethyl)pyridin-2-yl)thiazol-2-yl)acrylamide]",> 5.70,,> 75%,
"N#C/C(=C\c1ccc(O)c(O)c1)C(=O)Nc1nc(-c2ccc(OC(F)(F)F)cc2)c(C2CCCCC2)s1 [Preparative Example 175, (E)-2-cyano-N-(5-cyclohexyl-4-(4-(trifluoromethoxy)phenyl)thiazol-2-yl)-3-(3,4-dihydroxyphenyl)acrylamide]",5.00 to 5.70,,> 75%,
"COc1ccc(-c2csc(NC(=O)/C(C#N)=C/c3ccc(O)c(O)c3)n2)cc1 [Preparative Example 162, (E)-2-cyano-3-(3,4-dihydroxyphenyl)-N-(4-(4-methoxyphenyl)thiazol-2-yl)acrylamide]",> 5.70,,> 75%,
"COc1cccnc1-c1csc(NC(=O)/C(C#N)=C/c2ccc(O)c(O)c2)n1 [Preparative Example 242, (E)-2-cyano-3-(3,4-dihydroxyphenyl)-N-(4-(3-methoxypyridin-2-yl)thiazol-2-yl)acrylamide]",> 5.70,95%,> 75%,
"N#C/C(=C\c1ccc(O)c(Cl)c1)C(=O)Nc1nc(-c2ccccc2)cs1 [Preparative Example 201, (E)-3-(3-chloro-4-hydroxyphenyl)-2-cyano-N-(4-phenylthiazol-2-yl)acrylamide]",5.00 to 5.70,,50 to 75%,
"CC(C)(O)c1ccc(-c2csc(NC(=O)/C(C#N)=C/c3ccc(O)c(O)c3)n2)cc1 [Preparative Example 182, (E)-2-cyano-3-(3,4-dihydroxyphenyl)-N-(4-(4-(2-hydroxypropan-2-yl)phenyl)thiazol-2-yl)acrylamide]",> 5.70,,50 to 75%,
"Cc1sc(NC(=O)/C(C#N)=C/c2ccc(O)c(O)c2)nc1-c1ccccc1 [Preparative Example 194, (E)-2-cyano-3-(3,4-dihydroxyphenyl)-N-(5-methyl-4-phenylthiazol-2-yl)acrylamide]",> 5.70,,50 to 75%,
"Cc1ccc(-c2csc(NC(=O)/C(C#N)=C/c3ccc(O)c(O)c3)n2)s1 [Preparative Example 229, (E)-2-cyano-3-(3,4-dihydroxyphenyl)-N-(4-(5-methylthiophen-2-yl)thiazol-2-yl)acrylamide]",> 5.70,,50 to 75%,
"N#C/C(=C\c1ccc(O)c2ccccc12)C(=O)Nc1nc(-c2ccccc2)cs1 [Preparative Example 227, (E)-2-cyano-3-(4-hydroxynaphthalen-1-yl)-N-(4-phenylthiazol-2-yl)acrylamide]",5.00 to 5.70,,> 75%,
"N#CC(C(=O)Nc1nc(-c2ccccc2)cs1)=C(c1ccccc1)c1ccc(O)c(O)c1 (mixture of isomers) [Preparative Example 190, (E/Z)-2-cyano-3-(3,4-dihydroxyphenyl)-3-phenyl-N-(4-phenylthiazol-2-yl)acrylamide]",> 5.70,,> 75%,

# Reference: patent publication US11584742B2 (MASARYKOVA UNIVERZITA, priority 2018, dated 2023)
